Results on 20 molecules are retold here after ChEMBL document CHEMBL4145520, “Small-molecule Mcl-1 inhibitors: Emerging anti-tumor agents” (Eur J Med Chem, 2018).

The nature of experiment [1]: Induction of apoptosis in human MOLP8 cells assessed as caspase 3/7 activation after 2 hrs by caspase-Glo 3/7 assay. It is filed as functional, cell-based. The conditions noted are these: MOLP-8, 2 h.
The target of experiment [2] is T1, Induced myeloid leukemia cell differentiation protein Mcl-1 (Homo sapiens, UniProt Q07820). Description: Inhibition of N-terminal 26 residues truncated 5-FAM labelled Bid-BH3 binding to MCL1 (unknown origin) by fluorescence polarization assay. A general note: In fluorescence polarisation assays a small probe gives low polarisation when free and higher when bound to something large.

The target of experiment [3] is T1, Induced myeloid leukemia cell differentiation protein Mcl-1. Description: Binding affinity to MCL1 (unknown origin) by surface plasma resonance method.
Experiment [4] concerns the target T2, Bcl-2-like protein 1 (Homo sapiens, UniProt Q07817). Description: Inhibition of biotin labelled Bid-BH3 binding to GST-tagged BCL-XL (unknown origin) preincubated for 15 mins followed by biotin labelled Bid-BH3 addition measured after 2 hrs by ELISA. A general note: ELISA stands for enzyme-linked immunosorbent assay.
The next experiment relates to MDA-MB-468. Description: Cytotoxicity against human MDA-MB-468 cells assessed as reduction in cell viability by MTT assay. Format: functional, cell-based. A general note: Tetrazolium dyes change colour on reduction, which living cells bring about.
Experiment [5] addresses T1, Induced myeloid leukemia cell differentiation protein Mcl-1. Description: Inhibition of His6 tagged MBP fused Mcl-1 (unknown origin) after 0.5 hrs by fluorescence polarization assay.
Experiment [6] shares this target. Description: Inhibition of FAM labelled Bid-BH3 binding to N-terminal GST-tagged human recombinant MCL1 expressed in Escherichia coli […] after 60 mins by TR-FRET assay.
The nature of experiment [7]: Inhibition of recombinant FITC tagged Bid-BH3 binding to BCL-XL deltaC (unknown origin) expressed in Escherichia coli BL21 (DE3) by fluorescence polarization assay. Also noted: species or system Homo sapiens.
A further experiment has as its system B-ALL. Description: Cytotoxicity against human B-ALL cells assessed as reduction in cell viability after 24 hrs by CellTiter-Glo luminescent assay. It is filed as functional, cell-based.
Experiment [8] concerns RS4-11. Description: Cytotoxicity against human RS4:11 cells assessed as reduction in cell viability. It is filed as functional, cell-based.
The target in experiment [9] is T1, Induced myeloid leukemia cell differentiation protein Mcl-1. Description: Inhibition of Mcl-1 (unknown origin) by TR-FRET assay.
A further experiment concerns A-375. Description: Growth inhibition of human A375 cells after 48 hrs by CellTiter-Blue assay. It is filed as functional. To be noted: A-375, 48 h.
Experiment [10] has as its target T1, Induced myeloid leukemia cell differentiation protein Mcl-1. Description: Inhibition of FITC-BAK binding to His6 tagged MBP fused recombinant human MCL1 (172 to 327 residues) expressed in Escherichia coli by fluorescence polarization competition assay.
A short description of experiment [11]: Antiproliferative activity against human NCI-H2110 cells after 48 hrs by CellTiter-Glo assay. The conditions noted are these: NCI-H2110, 48 h. Format: functional, cell-based.
The next experiment deals with NCI-H23. Description: Antiproliferative activity against human NCI-H23 cells after 48 hrs by CellTiter-Glo assay. It is filed as functional, cell-based. To be noted: NCI-H23, 48 h.
In experiment [12] the test system is RS4-11. Description: Cytotoxicity against human RS4:11 cells assessed as reduction in cell viability after 72 hrs. To be noted: RS4-11, 72 h. Format: functional, cell-based.
A further experiment concerns HeLa. Description: Cytotoxicity against human HeLa cells assessed as reduction in cell viability after 72 hrs. Format: functional, cell-based.
Experiment [13] concerns the target T2, Bcl-2-like protein 1. Description: Inhibition of biotin labelled Bid-BH3 binding to C-terminal GST-tagged human BCL-XL […] expressed in Escherichia coli BL21 (DE3) preincubated for 1 hr followed by followed by biotin labelled Bid-BH3 addition measured after 2 hrs by ELISA.
The target in experiment [14] is T1, Induced myeloid leukemia cell differentiation protein Mcl-1. Description: Inhibition of FITC-BAK binding to MCL1 (172 to 327 residues) (unknown origin) by fluorescence polarization assay.
A short description of experiment [15]: Selectivity ratio of IC50 for human HL60 cells to IC50 for human NCI-H345 cells. It is filed as functional.
In experiment [16] the target is Apoptosis regulator Bcl-2 (Homo sapiens, UniProt P10415). Description: Displacement of FAM labelled Bid-derived peptide from Bcl-2 (unknown origin) incubated for 1 min by fluorescence polarization assay.
The next experiment deals with HL-60. Description: Induction of apoptosis in human HL60 cells after 48 hrs by Annexin V-FITC staining based flow cytometry. It is filed as functional, cell-based. To be noted: HL-60, 48 h.
The next experiment relates to NCI-H345. Description: Induction of apoptosis in human NCI-H345 cells after 48 hrs by Annexin V-FITC staining based flow cytometry. Format: functional, cell-based. To be noted: NCI-H345, 48 h.
Experiment [17] concerns the target T1, Induced myeloid leukemia cell differentiation protein Mcl-1. Description: Displacement of FAM labelled Bid-derived peptide from MCL1 (unknown origin) incubated for 1 min by fluorescence polarization assay.
For a further experiment, the species on record is Homo sapiens. Description: Selectivity ratio of Ki for Bcl-2 (unknown origin) to Ki for MCL1 (unknown origin).

Some results are limits rather than exact numbers.

T1 sequence (Q07820 whole entry, the tested form may be a part): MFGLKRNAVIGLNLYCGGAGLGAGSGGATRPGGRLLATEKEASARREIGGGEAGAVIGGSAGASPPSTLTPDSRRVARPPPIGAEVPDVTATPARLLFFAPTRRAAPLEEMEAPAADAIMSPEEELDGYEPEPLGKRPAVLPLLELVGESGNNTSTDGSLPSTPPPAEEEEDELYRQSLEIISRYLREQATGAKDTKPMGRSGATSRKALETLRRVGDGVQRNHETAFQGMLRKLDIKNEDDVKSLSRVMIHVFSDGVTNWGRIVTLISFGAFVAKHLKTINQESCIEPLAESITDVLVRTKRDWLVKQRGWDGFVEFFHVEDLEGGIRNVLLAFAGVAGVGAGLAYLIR
T2 sequence (Q07817 whole entry): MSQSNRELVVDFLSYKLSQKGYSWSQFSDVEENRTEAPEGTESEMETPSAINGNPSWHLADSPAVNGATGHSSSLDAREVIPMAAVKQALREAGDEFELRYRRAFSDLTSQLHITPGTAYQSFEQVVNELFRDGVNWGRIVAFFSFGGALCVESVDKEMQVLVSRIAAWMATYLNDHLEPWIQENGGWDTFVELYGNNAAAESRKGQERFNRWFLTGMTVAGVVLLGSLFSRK
Sequence of Apoptosis regulator Bcl-2 (P10415 whole entry): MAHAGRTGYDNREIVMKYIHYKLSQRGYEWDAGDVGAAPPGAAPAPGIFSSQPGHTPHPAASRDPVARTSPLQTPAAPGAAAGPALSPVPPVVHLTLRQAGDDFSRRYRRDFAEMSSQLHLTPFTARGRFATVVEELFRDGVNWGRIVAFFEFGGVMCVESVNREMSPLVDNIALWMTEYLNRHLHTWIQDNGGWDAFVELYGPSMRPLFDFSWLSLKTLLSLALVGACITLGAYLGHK

As a reminder, the EC50 is the midpoint of the concentration-response curve. On to `Cc1c(-c2cccc3c(CCCOc4cccc5ccccc45)c(C(=O)O)[nH]c23)c(COc2cccc(C=O)c2)nn1C`, for which, in experiment [1], the concentration giving a half-maximal response (EC50) is over 11000 nM.

The term Ki denotes a measure of affinity in units of concentration, obtained from inhibition or displacement. In [2], `COc1cc(NC(=O)CCC(=O)N2CCN(Cc3cccc(-c4ccc(Cl)cc4)c3)CC2)cc(OC)c1OC` yielded a Ki of 320 nM.

In general, Kd refers to the equilibrium constant for the complex coming apart. In experiment [3], `N#CC1=C(NCCC(=O)O)c2ccc(Sc3ccc(Br)cc3)c3cccc(c23)C1=O` showed a dissociation constant Kd of 150 nM. The IC50 is the concentration at which inhibition is half-maximal. Turning to `O=C(O)CSc1ccc(C(=O)c2[nH]c(Cl)c(Cl)c2-n2c(C(=O)c3ccc(SCC(=O)O)cc3O)cc(Cl)c2Cl)c(O)c1`, the half-inhibitory concentration (IC50) at Bcl-2-like protein 1 [4] is over 100000 nM; in the experiment on MDA-MB-468, 29000 nM.

`CC(=O)c1cccc(OCc2nn(C)c(C)c2-c2cccc3c(CCCOc4cccc5ccccc45)c(C(=O)O)[nH]c23)c1`: in [1], the concentration for a half-maximal effect (EC50) turned out to be 2700 nM. `Cc1cc(OCCCc2c3n(c4c(-c5c(C)nn(C)c5C)c(Cl)ccc24)CCCC(c2cc(C(=O)O)c4ccn(C)c4c2)C3=O)cc(C)c1Cl` (stereo not drawn) came in with a Ki in [5] of under 1 nM.

In the case of `Cc1c(-c2cccc3c(CCCOc4cccc5ccccc45)c(C(=O)O)[nH]c23)c(COc2ccc(B(O)O)cc2)nn1C`, the EC50 in [1] is over 11000 nM. Also, the half-inhibitory concentration (IC50) in [6] came out at 162 nM.

As to `Cc1cs/c(=N\C2CCCCC2)n1/N=C/c1ccc(O)c(O)c1O`, the values for the IC50 (in experiment [7]; in the experiment with B-ALL) were over 50000 nM and 4200 nM, respectively. `CC1(C)CCC(CN2CCN(c3ccc(C(=O)NS(=O)(=O)c4ccc(NCC5CCOCC5)c([N+](=O)[O-])c4)c(Oc4cnc5[nH]ccc5c4)c3)CC2)=C(c2ccc(Cl)cc2)C1` [VENETOCLAX]: the concentration for half-maximal inhibition (IC50) in the experiment on RS4-11 [8] was in the range of 1.5 to 5 nM. Further, the Ki in [9] was over 444 nM.

Broadly, the GI50 is the concentration that inhibits growth by half. The low end stands for more potent growth inhibition, the high end for less potent growth inhibition. For the molecule `Cc1cc(Oc2ccc(S(=O)(=O)N3CC(C(=O)O)Cc4ccccc43)cc2)cc(C)c1Cl` (stereo not drawn), the GI50 in the experiment on A-375 turned out to be 50000 nM. In addition, the inhibition constant Ki in [10] was found to be 120 nM. For the molecule `O=C(O)c1[nH]c2ccccc2c1CCCCC1CCCCC1`, the EC50 in experiment [11] worked out at 5300 nM; in the experiment with NCI-H23, 7200 nM. For the molecule `O=C(c1ccccc1O)c1[nH]c(Cl)c(Cl)c1-n1c(C(=O)c2ccccc2O)cc(Cl)c1Cl`, the half-inhibitory concentration (IC50) was 2000 nM with RS4-11 [12], 20000 nM with HeLa and over 80000 nM on Bcl-2-like protein 1 [13]. As to `CCc1nn(C)c(CC)c1-c1cccc2c(CCCOc3cccc4ccccc34)c(C(=O)O)n(CCN3CCOCC3)c12`, the concentration giving a half-maximal response (EC50) in [1] was determined as 350 nM. Molecule `Cc1cc(Oc2ccc(C(=O)O)c(OCc3ccccc3)n2)cc(C)c1Cl` returned an inhibitory constant (Ki) in [14] of 2900 nM. Turning to `Cc1c(-c2cccc3c(CCCOc4cccc5ccccc45)c(C(=O)O)n(C)c23)c(COc2ccc(B(O)O)c(C=O)c2)nn1C`, in [1], the EC50 worked out at 75 nM. In [2], `COc1cc(CC(=O)NCc2ccc(C(=O)N3CCN(Cc4ccccc4-c4ccccc4)CC3)cc2)cc(OC)c1OC` showed a Ki of 180 nM.

For `O=C(O)c1cc2ccccc2n1S(=O)(=O)c1ccc(OCc2cccc(Cl)c2)cc1`, the “Ratio IC50” value in experiment [15] is recorded as 30. Besides, the inhibitory constant (Ki) in experiment [16] came to 3600 nM; in experiment [17] it was 480 nM. For the same molecule, the half-inhibitory concentration (IC50) with HL-60 worked out at 63300 nM; with NCI-H345 it was 2200 nM. In the experiment filed under Homo sapiens, the Ratio Ki is 7.5. Regarding `CC(=O)c1cc(OCc2nn(C)c(C)c2-c2cccc3c(CCCOc4cccc5ccccc45)c(C(=O)O)[nH]c23)ccc1B(O)O`, the EC50 in experiment [1] was determined as 170 nM.

As for `Cc1c(-c2cccc3c(CCCOc4cccc5ccccc45)c(C(=O)O)[nH]c23)c(COc2ccc(B(O)O)c(C=O)c2)nn1C`, the EC50 in experiment [1] came out at 460 nM. On the same count and under the same terms, with `Cc1c(-c2cccc3c(CCCOc4cccc5ccccc45)c(C(=O)O)[nH]c23)c(COc2ccccc2)nn1C` the figure was over 11000 nM.
